Results: the NIST ThermoML archive (doi:10.1016/j.jct.2015.07.014)

Test: xn = mol fraction of the nth substance listed
Settings: Fluid (supercritical or subcritical phases), Buoyancy - hydrostatic balance with magnetic suspension - one sinker

N#N [nitrogen] + O=C=O
mass density [kg/m3]
Settings	x1 = 0.95	x1 = 0.99
298.11 K, 30854 kPa	318.784	–
298.15 K, 30889 kPa	–	306.308
298.18 K, 10974 kPa	128.536	–
298.18 K, 26965 kPa	–	276.485
298.18 K, 28960 kPa	304.08	291.991
298.19 K, 10975 kPa	–	124.2
298.19 K, 12974 kPa	151.108	–
298.19 K, 12977 kPa	–	145.801
298.19 K, 14973 kPa	173.056	–
298.19 K, 14975 kPa	–	166.746
298.19 K, 16968 kPa	194.247	–
298.19 K, 16973 kPa	–	186.99
298.19 K, 18971 kPa	214.733	206.482
298.19 K, 20971 kPa	–	225.196
298.19 K, 20972 kPa	234.34	–
298.19 K, 22968 kPa	253.055	–
298.19 K, 22969 kPa	–	243.092
298.19 K, 24966 kPa	270.906	–
298.19 K, 24967 kPa	–	260.186
298.19 K, 26964 kPa	287.919	–
323.18 K, 10979 kPa	116.684	–
323.18 K, 14973 kPa	156.725	–
323.18 K, 28962 kPa	–	266.975
323.18 K, 30957 kPa	291.768	280.954
323.19 K, 12977 kPa	136.963	–
323.19 K, 14974 kPa	–	151.425
323.19 K, 20974 kPa	212.443	–
323.19 K, 22968 kPa	229.628	–
323.19 K, 24967 kPa	246.174	–
323.19 K, 24968 kPa	–	237.145
323.19 K, 26966 kPa	–	252.374
323.19 K, 28961 kPa	277.225	–
323.2 K, 12978 kPa	–	132.477
323.2 K, 16971 kPa	175.903	–
323.2 K, 16973 kPa	–	169.822
323.2 K, 18972 kPa	194.494	–
323.2 K, 18975 kPa	–	187.629
323.2 K, 20974 kPa	–	204.784
323.2 K, 22971 kPa	–	221.285
323.2 K, 26964 kPa	262.031	–
323.21 K, 10980 kPa	–	112.998
348.15 K, 14974 kPa	143.613	–
348.16 K, 12976 kPa	125.56	–
348.16 K, 26965 kPa	–	232.594
348.16 K, 28963 kPa	–	246.335
348.17 K, 10975 kPa	107.02	103.828
348.18 K, 12974 kPa	–	121.664
348.18 K, 20972 kPa	–	188.207
348.18 K, 24966 kPa	–	218.313
348.18 K, 30959 kPa	–	259.551
348.19 K, 16972 kPa	161.157	–
348.19 K, 18968 kPa	–	172.299
348.19 K, 30958 kPa	268.893	–
348.2 K, 14978 kPa	–	139.081
348.2 K, 22973 kPa	–	203.544
348.2 K, 26965 kPa	240.883	–
348.21 K, 16969 kPa	–	155.902
348.21 K, 22970 kPa	210.667	–
348.21 K, 24968 kPa	226.054	–
348.22 K, 18976 kPa	178.236	–
348.23 K, 20969 kPa	194.689	–
348.24 K, 28961 kPa	255.123	–
373.11 K, 14975 kPa	132.811	–
373.14 K, 10975 kPa	99.052	–
373.14 K, 10978 kPa	–	96.257
373.14 K, 24968 kPa	–	202.615
373.14 K, 26966 kPa	–	216.025
373.16 K, 20970 kPa	180.142	–
373.16 K, 28962 kPa	–	228.969
373.17 K, 12975 kPa	116.113	–
373.17 K, 12978 kPa	–	112.737
373.17 K, 30957 kPa	249.734	–
373.18 K, 14973 kPa	–	128.781
373.18 K, 16969 kPa	148.99	–
373.19 K, 18968 kPa	164.767	–
373.19 K, 22970 kPa	194.991	–
373.19 K, 24968 kPa	209.378	–
373.19 K, 26966 kPa	223.295	–
373.19 K, 30958 kPa	–	241.48
373.2 K, 16976 kPa	–	144.455
373.2 K, 18972 kPa	–	159.653
373.2 K, 22969 kPa	–	188.731
373.2 K, 28961 kPa	236.723	–
373.21 K, 20974 kPa	–	174.438
398.12 K, 10979 kPa	92.339	–
398.15 K, 16976 kPa	–	134.736
398.17 K, 10981 kPa	–	89.797
398.17 K, 26965 kPa	–	201.89
398.17 K, 30957 kPa	–	226.029
398.17 K, 30958 kPa	233.41	–
398.18 K, 28962 kPa	221.089	–
398.18 K, 28963 kPa	–	214.146
398.19 K, 14974 kPa	–	120.089
398.19 K, 20968 kPa	–	162.734
398.2 K, 12973 kPa	108.135	–
398.2 K, 14975 kPa	123.655	–
398.2 K, 18973 kPa	–	148.923
398.2 K, 22966 kPa	–	176.162
398.2 K, 24970 kPa	–	189.239
398.21 K, 18973 kPa	153.504	–
398.21 K, 22970 kPa	181.754	–
398.21 K, 24969 kPa	195.274	–
398.21 K, 26967 kPa	208.381	–
398.22 K, 12974 kPa	–	105.084
398.22 K, 20969 kPa	167.809	–
398.23 K, 16974 kPa	138.767	–
423.11 K, 14972 kPa	–	112.628
423.13 K, 24967 kPa	183.194	–
423.13 K, 26965 kPa	195.591	–
423.13 K, 28962 kPa	207.636	–
423.13 K, 30956 kPa	219.326	–
423.14 K, 22965 kPa	170.413	–
423.16 K, 16970 kPa	–	126.322
423.16 K, 18970 kPa	143.837	–
423.16 K, 20971 kPa	157.318	–
423.17 K, 12979 kPa	–	98.597
423.17 K, 18968 kPa	–	139.677
423.18 K, 10978 kPa	86.517	–
423.18 K, 10979 kPa	–	84.203
423.18 K, 12971 kPa	101.311	–
423.18 K, 14973 kPa	115.841	–
423.18 K, 16967 kPa	129.977	–
423.18 K, 20972 kPa	–	152.731
423.18 K, 30957 kPa	–	212.642
423.19 K, 22973 kPa	–	165.419
423.21 K, 24968 kPa	–	177.709
423.21 K, 28961 kPa	–	201.322
423.22 K, 26966 kPa	–	189.691
